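These data come from cells grown in 96-well plates and exposed to compound for 48 hours at five concentrations. The concentration for full growth arrest is given as TGI.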
How the values were obtained:
Assay in all cases: NCI anticancer screen, dose series, 48 h
[1] = test system: RPMI-8226 leukemia
[2] = test system: SK-MEL-2 melanoma
[3] = test system: M14 melanoma
[4] = test system: 786-0 renal
[5] = test system: PC-3 prostate
[6] = test system: UACC-257 melanoma
[7] = test system: HOP-92 NSCLC
[8] = test system: A498 renal
[9] = test system: RXF 393 renal
[10] = test system: SK-MEL-28 melanoma
[11] = test system: SN12C renal
[12] = test system: NCI-H23 lung
[13] = test system: TK-10 renal
[14] = test system: COLO 205 colon
[15] = test system: DU-145 prostate
[16] = test system: OVCAR-5 ovarian
[17] = test system: SK-MEL-5 melanoma
[18] = test system: BT-549 breast
[19] = test system: T-47D breast
[20] = test system: SNB-75 CNS
[21] = test system: OVCAR-4 ovarian
[22] = test system: K-562 leukemia
[23] = test system: NCI-H460 lung
[24] = test system: LOX IMVI melanoma
[25] = test system: MALME-3M melanoma
[26] = test system: MDA-MB-231 breast
[27] = test system: HCT-15 colon
[28] = test system: SK-OV-3 ovarian
[29] = test system: NCI/ADR-RES ovarian
[30] = test system: HS 578T breast
[31] = test system: EKVX NSCLC
[32] = test system: HOP-62 NSCLC
[33] = test system: UO-31 renal
[34] = test system: MDA-MB-435
[35] = test system: CCRF-CEM leukemia
[36] = test system: SF-539 CNS
[37] = test system: MOLT-4 leukemia
[38] = test system: MDA-N
[39] = test system: MCF7 breast
[40] = test system: SF-268 CNS
[41] = test system: U251 CNS
[42] = test system: NCI-H522 lung
[43] = test system: UACC-62 melanoma
[44] = test system: HT29 colon
[45] = test system: NCI-H226 lung
[46] = test system: IGROV1 ovarian
[47] = test system: ACHN renal
[48] = test system: SW-620 colon
[49] = test system: SF-295 CNS
[50] = test system: HCC-2998 colon
[51] = test system: OVCAR-3 ovarian
[52] = test system: CAKI-1 renal
[53] = test system: SR leukemia
[54] = test system: HCT-116 colon
[55] = test system: KM12 colon
[56] = test system: SNB-19 CNS
[57] = test system: DMS 273 small cell lung
[58] = test system: OVCAR-8 ovarian
[59] = test system: DMS 114 small cell lung
[60] = test system: DLD-1 colon
[61] = test system: HL-60(TB) leukemia
[62] = test system: KM20L2 colon
[63] = test system: HOP-18 NSCLC
[64] = test system: LXFL 529 NSCLC
[65] = test system: XF 498 CNS
[66] = test system: A549 NSCLC

COC(OC)[C@@H]1OC[C@@H](O)[C@@H]1n1cnc2c(N)ncnc21
TGI [1]: > 100 µM
TGI [2]: > 100 µM
TGI [3]: > 100 µM
TGI [4]: > 100 µM
TGI [5]: > 100 µM
TGI [6]: > 100 µM
TGI [7]: > 100 µM
TGI [8]: > 100 µM
TGI [9]: > 100 µM
TGI [10]: > 100 µM
TGI [11]: > 100 µM
TGI [12]: > 100 µM
TGI [13]: > 100 µM
TGI [14]: > 100 µM
TGI [15]: > 100 µM
TGI [16]: > 100 µM
TGI [17]: > 100 µM
TGI [18]: > 100 µM
TGI [19]: > 100 µM
TGI [20]: > 100 µM
TGI [21]: > 100 µM
TGI [22]: > 100 µM
TGI [23]: > 100 µM
TGI [24]: > 100 µM
TGI [25]: > 100 µM
TGI [26]: > 100 µM
TGI [27]: > 100 µM
TGI [28]: > 100 µM
TGI [29]: > 100 µM
TGI [30]: > 100 µM
TGI [31]: > 100 µM
TGI [32]: > 100 µM
TGI [33]: > 100 µM
TGI [34]: > 100 µM
TGI [35]: > 100 µM
TGI [36]: > 100 µM
TGI [37]: > 100 µM
TGI [38]: > 100 µM
TGI [39]: > 100 µM
TGI [40]: > 100 µM
TGI [41]: > 100 µM
TGI [42]: > 100 µM
TGI [43]: > 100 µM
TGI [44]: > 100 µM
TGI [45]: > 100 µM
TGI [46]: > 100 µM
TGI [47]: > 100 µM
TGI [48]: > 100 µM
TGI [49]: > 100 µM
TGI [50]: > 100 µM
TGI [51]: > 100 µM
TGI [52]: > 100 µM
TGI [53]: > 100 µM
TGI [54]: > 100 µM
TGI [55]: > 100 µM

Cc1c(/C=N/N(C)C)oc2c1cc(O)c1ncccc12
TGI [1]: > 100 µM
TGI [2]: 44.5 µM
TGI [3]: 14.9 µM
TGI [56]: > 100 µM
TGI [4]: > 100 µM
TGI [6]: > 100 µM
TGI [7]: 76.8 µM
TGI [8]: 82 µM
TGI [57]: 37.7 µM
TGI [9]: 58.6 µM
TGI [10]: > 100 µM
TGI [11]: 96.4 µM
TGI [12]: > 100 µM
TGI [58]: 74.2 µM
TGI [13]: > 100 µM
TGI [14]: > 100 µM
TGI [59]: 8.59 µM
TGI [60]: > 100 µM
TGI [16]: > 100 µM
TGI [17]: 39.3 µM
TGI [20]: 86.6 µM
TGI [21]: 96.6 µM
TGI [22]: > 100 µM
TGI [23]: 41 µM
TGI [61]: 6.46 µM
TGI [24]: 45.2 µM
TGI [25]: 84.5 µM
TGI [27]: > 100 µM
TGI [62]: > 100 µM
TGI [28]: 71.7 µM
TGI [31]: 6.37 µM
TGI [32]: > 100 µM
TGI [33]: 7.12 µM
TGI [35]: 7.26 µM
TGI [37]: 16.8 µM
TGI [40]: > 100 µM
TGI [41]: > 100 µM
TGI [63]: 16 µM
TGI [42]: 8.58 µM
TGI [43]: 45.9 µM
TGI [44]: > 100 µM
TGI [45]: 48.9 µM
TGI [46]: 55.7 µM
TGI [64]: > 100 µM
TGI [47]: > 100 µM
TGI [65]: > 100 µM
TGI [48]: > 100 µM
TGI [49]: 97.9 µM
TGI [50]: > 100 µM
TGI [66]: > 100 µM
TGI [52]: 22.4 µM
TGI [53]: 40.4 µM
TGI [54]: > 100 µM
TGI [55]: > 100 µM

O=C(Nc1ccccc1)c1cc(S(=O)(=O)N2CCNNC2=O)c(S)cc1Cl
TGI [1]: > 100 µM
TGI [2]: > 100 µM
TGI [3]: > 100 µM
TGI [56]: > 100 µM
TGI [4]: > 100 µM
TGI [5]: > 100 µM
TGI [6]: > 100 µM
TGI [7]: > 100 µM
TGI [8]: > 100 µM
TGI [9]: 74.4 µM
TGI [10]: > 100 µM
TGI [11]: > 100 µM
TGI [58]: > 100 µM
TGI [13]: > 100 µM
TGI [14]: > 100 µM
TGI [15]: > 100 µM
TGI [16]: > 100 µM
TGI [17]: > 100 µM
TGI [18]: > 100 µM
TGI [19]: 83.9 µM
TGI [20]: > 100 µM
TGI [21]: > 100 µM
TGI [22]: > 100 µM
TGI [23]: > 100 µM
TGI [61]: > 100 µM
TGI [24]: > 100 µM
TGI [25]: > 100 µM
TGI [26]: 95 µM
TGI [27]: > 100 µM
TGI [29]: > 100 µM
TGI [30]: > 100 µM
TGI [31]: > 100 µM
TGI [33]: > 100 µM
TGI [34]: > 100 µM
TGI [35]: > 100 µM
TGI [36]: > 100 µM
TGI [37]: > 100 µM
TGI [38]: > 100 µM
TGI [39]: > 100 µM
TGI [40]: > 100 µM
TGI [41]: > 100 µM
TGI [42]: > 100 µM
TGI [43]: > 100 µM
TGI [45]: > 100 µM
TGI [46]: > 100 µM
TGI [47]: > 100 µM
TGI [48]: > 100 µM
TGI [49]: > 100 µM
TGI [50]: > 100 µM
TGI [66]: > 100 µM
TGI [51]: > 100 µM
TGI [52]: > 100 µM
TGI [53]: > 100 µM
TGI [54]: 95.5 µM
TGI [55]: > 100 µM

CCOC(=O)Oc1ccc2c(c1)c(=O)c1c(NCCN(CC)CC)ccc3nnn2c31
TGI [1]: 4.86 µM
TGI [2]: 27 µM
TGI [3]: 19.1 µM
TGI [56]: 15.9 µM
TGI [4]: 13 µM
TGI [5]: 15.1 µM
TGI [6]: 21.1 µM
TGI [7]: 21.4 µM
TGI [8]: 21.5 µM
TGI [9]: 18.8 µM
TGI [10]: 24.1 µM
TGI [11]: 15.1 µM
TGI [12]: 18.1 µM
TGI [58]: 14.3 µM
TGI [13]: 16.2 µM
TGI [14]: 14.9 µM
TGI [15]: 8.29 µM
TGI [16]: 22.7 µM
TGI [17]: 16.1 µM
TGI [18]: 23.1 µM
TGI [19]: 29.2 µM
TGI [21]: 11.9 µM
TGI [22]: > 36.3 µM
TGI [23]: 9.44 µM
TGI [24]: 4.16 µM
TGI [25]: 22 µM
TGI [26]: 17.6 µM
TGI [27]: 16.6 µM
TGI [28]: 22.6 µM
TGI [29]: 18.9 µM
TGI [30]: 22.9 µM
TGI [31]: 19.9 µM
TGI [32]: 7.22 µM
TGI [33]: 1.24 µM
TGI [34]: 16.4 µM
TGI [35]: 1.54 µM
TGI [36]: 13.5 µM
TGI [37]: 13.6 µM
TGI [38]: 15.6 µM
TGI [39]: 12 µM
TGI [40]: 17.1 µM
TGI [41]: 17 µM
TGI [42]: 6.61 µM
TGI [43]: 24.3 µM
TGI [44]: 11.7 µM
TGI [45]: 7.71 µM
TGI [46]: 21.7 µM
TGI [47]: 11.6 µM
TGI [48]: 13.2 µM
TGI [49]: 19.5 µM
TGI [50]: 17.4 µM
TGI [66]: 12.4 µM
TGI [51]: 19.7 µM
TGI [52]: 2.63 µM
TGI [53]: 12.9 µM
TGI [54]: 12.6 µM
TGI [55]: 14.9 µM
